In the NIST ThermoML archive (doi:10.1021/je200121f):
Several values for one entry are separate records, joined by “and”; a condition that tells them apart may be missing. Identical values can stand only once.

Experiments:
[1] = for surface tension liquid-gas: Ring tensiometer; for viscosity / speed of sound / mass density: 101 kPa, Liquid; for viscosity: Capillary tube (Ostwald / Ubbelohde) method; for speed of sound: Sing-around technique in a fixed-path interferometer; for mass density: Vibrating tube method
[2] = refractive index (Na D-line) (dimensionless); conditions: 101.33 kPa, Liquid, Standard Abbe refractometry
[3] = xn = mol fraction of the nth substance listed; conditions: x1 = 1; for surface tension liquid-gas: Ring tensiometer; for viscosity / speed of sound / mass density: 101 kPa, Liquid; for viscosity: Capillary tube (Ostwald / Ubbelohde) method; for speed of sound: Sing-around technique in a fixed-path interferometer; for mass density: Vibrating tube method
[4] = refractive index (Na D-line) (dimensionless); xn = mol fraction of the nth substance listed; conditions: 101 kPa, Liquid, Standard Abbe refractometry, x1 = 1

CN1CCCC1=O [N-methylpyrrolidone]
Conditions | mass density, [1] [kg/m3] | refractive index, [2] | speed of sound, [1] [m/s] | surface tension liquid-gas, [1] | viscosity, [1] [mPa·s]
293.15 K | 1033.6 | 1.4688 | 1567.9 | 42.7 mN/m | 1.899
303.15 K | 1024.7 | 1.4657 | 1529.7 | 41.5 mN/m and 41.3 mN/m | 1.592
313.15 K | 1015.7 | 1.4621 | 1491.2 | 40.8 mN/m and 41 mN/m | 1.353
323.15 K | 1006.8 | 1.4579 | 1454.6 | 40 mN/m and 39.8 mN/m | 1.17

CN1CCCC1=O [N-methylpyrrolidone] + CC(O)CNCC(C)O
Conditions | mass density, [3] [kg/m3] | refractive index, [4] | speed of sound, [3] [m/s] | surface tension liquid-gas, [3] [mN/m] | viscosity, [3] [mPa·s]
293.15 K | 1033.6 | 1.4688 | 1567.9 | 42.7 | 1.899
303.15 K | 1024.7 | 1.4657 | 1529.7 | 41.3 | 1.592
313.15 K | 1015.7 | 1.4621 | 1491.2 | 41 | 1.353
323.15 K | 1006.8 | 1.4579 | 1454.6 | 39.8 | 1.17

CN1CCCC1=O [N-methylpyrrolidone] + C[C@H](O)CN
Conditions | mass density, [3] [kg/m3] | refractive index, [4] | speed of sound, [3] [m/s] | surface tension liquid-gas, [3] [mN/m] | viscosity, [3] [mPa·s]
293.15 K | 1033.6 | 1.4688 | 1567.9 | 42.7 | 1.899
303.15 K | 1024.7 | 1.4657 | 1529.7 | 41.5 | 1.592
313.15 K | 1015.7 | 1.4621 | 1491.2 | 40.8 | 1.353
323.15 K | 1006.8 | 1.4579 | 1454.6 | 40 | 1.17

C[C@H](O)CN [(2S)-1-amino-2-propanol]
Conditions | mass density, [1] [kg/m3] | refractive index, [2] | speed of sound, [1] [m/s] | surface tension liquid-gas, [1] [mN/m] | viscosity, [1] [mPa·s]
293.15 K | 960.8 | 1.448 | 1560.8 | 37.6 | 31.67
303.15 K | 952.8 | 1.4442 | 1528.3 | 36.9 | 17.71
313.15 K | 944.7 | 1.4401 | 1495.7 | 36.3 | 10.65
323.15 K | 936.5 | 1.436 | 1462.9 | 35.9 | 6.961

CC(O)CNCC(C)O (stereo not given) [N-(2-hydroxypropyl)-2-hydroxy-1-propanamine]
323.15 K
Conditions | mass density [kg/m3] | refractive index | speed of sound [m/s] | surface tension liquid-gas [mN/m] | viscosity [mPa·s]
[1] | 984.1 | – | 1420.3 | 34.5 | 125.73
[2] | – | 1.4512 | – | – | –
